Measured values taken from PMC8869984, “Multifunctional Silver(I) Complexes with Metronidazole Drug Reveal Antimicrobial Properties and Antitumor Activity against Human Hepatoma and Colorectal Adenocarcinoma Cells” (Cancers, 2022).
In brackets after ≈: the same amount, converted by molar mass. Read-outs that look alike come from different tables or passages of the source.

Key:
HepG2 cells [1] = assay: NRU assay (lysosomal activity), 72 h exposure; type: cell-based, human; conditions: for IC50: mean ± SD, n = 3
Experimental: (§1) The human hepatoma (HepG2) and colorectal adenocarcinoma (Caco-2) cells were purchased from the American Type Culture Collection: ATCC HB-8065 and ATCC HTB-37, respectively. These cells were cultured in Minimum Essential Medium Eagle (MEME) (ATCC). The murine fibroblasts cell line (Balb/c 3T3 clone A31) (gift from the Department of Swine Diseases of the National Veterinary Research Institute in Pulawy) was cultured in Dulbecco’s Modified Eagle Medium (DMEM) (ATCC). The media were supplemented with 10% BCS (Balb/c 3T3), 10% FBS (HepG2), 20% FBS (Caco-2), 1% L-glutamine, 1% antibiotic solution. The cells were maintained in 75 cm^2 cell culture flasks (NUNC) in a humidified incubator at 37 °C in an atmosphere of 5% CO2. The medium was refreshed every two or three days, and the cells were trypsinized by 0.25% trypsin–0.02% EDTA after reaching 70–80% confluence. Single cell suspensions were prepared and adjusted to a density of 2 × 10^5 cell/mL^−1 (HepG2), 1 × 10^5 cell/mL^−1 (Caco-2) and 5 × 10^4 cell/mL^−1 (Balb/c 3T3). The cell suspension was transferred to 96-well plates (100 µL/well) and incubated for 24 h before the exposure to the studied compounds. Stock solutions of ligands and metal complexes were prepared in sterile water and diluted with culture medium to obtain a concentration range from 0.1 to 10 µM. The final concentration of sterile water was 0.1% in the medium. […] As a negative control, cultured cells were grown in the absence of studied compounds. Each concentration was tested in six replicates in three independent experiments. Cytotoxicity was assessed after 72 h of exposure of the cells to compounds. The medium was not changed during the incubation time.
This method is based on staining living cells with neutral red, which readily diffuses through the plasma membrane and accumulates in lysosomes. […] After 10 min of shaking, the absorbance of the dissolved NR was measured using a Synergy HTX multi-mode reader (BioTek® Instruments Inc., Winooski, VT, USA) at 540 nm using a blank as a reference. Cytotoxicity was expressed as a percentage of the negative control. […]

HepG2 cells [2] = assay: TPC assay (total protein content), 72 h exposure; type: cell-based, human; conditions: for IC50: mean ± SD, n = 3
Experimental: as §1
This assay is based upon staining the total cellular protein (proliferation). After the incubation, the medium containing the drug was removed, and 100 µL Coomassie brilliant blue R-250 dye was added to each well. The plate was shaken for 10 min. Then, the stain was removed and the cells were rinsed twice with 100 µL of washing solution (glacial acetic acid/ethanol/water, 5:10:85, v:v:v). After that, 100 µL of the desorbing solution (1 M potassium acetate) was added, and plates were shaken again for 10 min. The absorbance was measured at 595 nm in a microplate reader Synergy HTX multi-mode reader (BioTek® Instruments Inc., Winooski, VT, USA) using a blank as a reference. Cytotoxicity was expressed as a percentage of the negative control.
The study was performed in three independent experiments. The obtained results are presented as mean values ± SD (standard deviation). The assessment of the cytotoxicity data used a one-way analysis of variance (ANOVA) followed by Dunnett’s post hoc test, which was applied to determine significance relative to the negative control.

B. cereus ATCC 10876 = assay: micro-dilution broth method (MIC, MBC); type: cell-based, Bacillus cereus
A. israeli ATCC 10049 = assay: micro-dilution broth method (MIC, MBC); type: cell-based, Actinomyces israelii
H. pylori ATCC 43504 = assay: micro-dilution broth method (MIC, MBC); type: cell-based
[3] = tested on: S. typhimurium ATCC 14028; assay: micro-dilution broth method (MIC, MBC); type: cell-based, Salmonella Typhimurium
[4] = light stability in normal daylight, visual assessment; type: physicochemical; conditions: for time to complete darkening: on both groundworks (paper, tissue paper)
HepG2 cells [5] = assay: LDH leakage assay (membrane integrity), 72 h exposure; type: cell-based, human
Experimental: as §1
(§2) The integrity of the plasma membrane was assessed through the test of lactate dehydrogenase (LDH) release, which was monitored using the commercially available Cytotoxicity Detection Kit (LDH) (Roche Diagnostics, Warsaw, Poland). […] The absorbance was measured at 492 nm in a microplate reader Synergy HTX multi-mode reader (BioTek® Instruments Inc., Winooski, VT, USA) using a blank as a reference. […]

Caco-2 cells [6] = assay: MTT assay (mitochondrial activity), 72 h exposure; type: cell-based, human; conditions: Caco-2, MTT
Caco-2 cells [7] = assay: NRU assay (lysosomal activity), 72 h exposure; type: cell-based, human; conditions: Caco-2, NRU
Caco-2 cells [8] = assay: TPC assay (total protein content), 72 h exposure; type: cell-based, human; conditions: Caco-2, TPC
Caco-2 cells [9] = assay: LDH leakage assay (membrane integrity), 72 h exposure; type: cell-based, human; conditions: Caco-2, LDH
Balb/c 3T3 cells [10] = assay: TPC assay (total protein content), 72 h exposure; type: cell-based, murine
Experimental: as §1
This assay is based upon staining the total cellular protein (proliferation). […] The absorbance was measured at 595 nm in a microplate reader Synergy HTX multi-mode reader (BioTek® Instruments Inc., Winooski, VT, USA) using a blank as a reference. Cytotoxicity was expressed as a percentage of the negative control. […]

Balb/c 3T3 cells [11] = assay: LDH leakage assay (membrane integrity), 72 h exposure; type: cell-based, murine
Experimental: as §1, §2

[12] = B. cereus ATCC 10876, value in brackets
[13] = A. israeli ATCC 10049, value in brackets
[14] = H. pylori ATCC 43504, value in brackets
[15] = S. typhimurium ATCC 14028, value in brackets
[16] = 1.25 µmol applied on tissue paper

Compound | IC50 (HepG2 cells [2]) [µM] | MBC (B. cereus ATCC 10876; B. cereus ATCC 10876) [mg/L] | MIC (B. cereus ATCC 10876; B. cereus ATCC 10876) [mg/L] | MBC (B. cereus ATCC 10876; [12]) [µM/mL] | MIC (B. cereus ATCC 10876; [12]) [µM/mL] | MBC (A. israeli ATCC 10049; A. israeli ATCC 10049) [mg/L] | MIC (A. israeli ATCC 10049; A. israeli ATCC 10049) [mg/L] | MBC (A. israeli ATCC 10049; [13]) [µM/mL] | MIC (A. israeli ATCC 10049; [13]) [µM/mL] | MBC (H. pylori ATCC 43504; H. pylori ATCC 43504) [mg/L] | MIC (H. pylori ATCC 43504; H. pylori ATCC 43504) [mg/L] | MBC (H. pylori ATCC 43504; [14]) [µM/mL] | MIC (H. pylori ATCC 43504; [14]) [µM/mL] | MBC ([3]; S. typhimurium ATCC 14028) [mg/L] | MIC ([3]; S. typhimurium ATCC 14028) [mg/L] | MBC [3, 15] [µM/mL] | MIC [3, 15] [µM/mL] | time of exposure after which darkening began ([4]; 1.25 µmol applied on paper) [min] | time of exposure after which darkening began [4, 16] [min] | time to complete darkening [4] [h] | other results
O=S(=O)([O-])[O-].[Ag+].[Ag+] [Ag2SO4, silver sulfate] | > 10 | 500 | 31.3 | 1.6 | 0.1 | 15.6 | 0.98 | 0.05 | 0.003 | 15.6 | 15.6 | 0.05 | 0.05 | 250 | 31.3 | 0.8 | 0.1 | 10 | 30 | 24 | IC50 (HepG2 cells [1]): > 10 µM
O=[N+]([O-])[O-].[Ag+] [AgNO3, Silver nitrate] | > 10 | 62.5 | 31.3 | 0.37 | 0.185 | 0.49 | 0.49 | 0.003 | 0.003 | 15.6 | 15.6 | 0.09 | 0.09 | 15.6 | 15.6 | 0.09 | 0.09 | 10 | 30 | 24 | –
Cc1ncc([N+](=O)[O-])n1CCO [MTZ, 2-Methyl-5-nitroimidazole-1-ethanol] | – | – | – | > 5.85 | 2.93 | – | – | > 5.85 | > 5.85 | – | – | 0.09 | 0.09 | – | – | > 5.85 | > 5.85 | – | – | – | IC50 (HepG2 cells [1]; Homo sapiens): > 10 µM; IC50 (HepG2 cells [2]; Homo sapiens): > 10 µM; IC50 (HepG2 cells [5]; Homo sapiens, mean ± SD, n = 3): > 10 µM; IC50 (Caco-2 cells [6]; Homo sapiens, mean ± SD, n = 3): > 10 µM; IC50 (Caco-2 cells [7]; Homo sapiens, mean ± SD, n = 3): > 10 µM; IC50 (Caco-2 cells [8]; Homo sapiens, mean ± SD, n = 3): > 10 µM; IC50 (Caco-2 cells [9]; Homo sapiens, mean ± SD, n = 3): > 10 µM; IC50 (Balb/c 3T3 cells [10]; Mus musculus, BALB/c3T3, Balb/c 3T3, TPC, mean ± SD, n = 3): > 10 µM; IC50 (Balb/c 3T3 cells [11]; Mus musculus, BALB/c3T3, Balb/c 3T3, LDH, mean ± SD, n = 3): > 10 µM; MBC (B. cereus ATCC 10876; Bacillus cereus, ATCC10876, B. cereus ATCC 10876, read-out: MBC): > 1000 mg/L; MIC (B. cereus ATCC 10876; Bacillus cereus, ATCC10876, B. cereus ATCC 10876, read-out: MIC): 500 mg/L (≈ 2920 µM); MBC (A. israeli ATCC 10049; Actinomyces israelii, ATCC10049, A. israeli ATCC 10049, read-out: MBC): > 1000 mg/L; MIC (A. israeli ATCC 10049; Actinomyces israelii, ATCC10049, A. israeli ATCC 10049, read-out: MIC): > 1000 mg/L; MBC (H. pylori ATCC 43504; Helicobacter pylori, ATCC43504, H. pylori ATCC 43504, read-out: MBC): 15.6 mg/L (≈ 91.1 µM); MIC (H. pylori ATCC 43504; Helicobacter pylori, ATCC43504, H. pylori ATCC 43504, read-out: MIC): 15.6 mg/L (≈ 91.1 µM); MBC ([3]; Salmonella enterica, S. typhimurium ATCC 14028, read-out: MBC): > 1000 mg/L; MIC ([3]; Salmonella enterica, S. typhimurium ATCC 14028, read-out: MIC): > 1000 mg/L
Cc1ncc([N+](=O)[O-])n1CCO.Cc1ncc([N+](=O)[O-])n1CCO.Cc1ncc([N+](=O)[O-])n1CCO.Cc1ncc([N+](=O)[O-])n1CCO.O=S(=O)([O-])[O-].[Ag+].[Ag+] [[Ag(MTZ)2]2SO4] | – | – | 62.5 | 0.12 | 0.06 | 15.6 | 7.8 | 0.014 | 0.007 | 31.3 | 7.8 | 0.03 | 0.008 | 62.5 | 15.6 | 0.06 | 0.014 | – | – | – | lowest concentration with significant (p ≤ 0.05) effect (HepG2 cells [1]; Figure 6): 5.0 µM; lowest concentration with significant (p ≤ 0.05) effect (HepG2 cells [2]; Figure 6): 5.0 µM; lowest concentration with significant (p ≤ 0.05) effect (HepG2 cells [5]; Figure 6): 5.0 µM; lowest concentration with inhibition of mitochondrial activity (Caco-2 cells [6]; Figure 6): 1.0 µM; lowest concentration with inhibition of lysosomal activity (Caco-2 cells [7]; Figure 6): 1.0 µM; lowest concentration with decreased total protein content (Caco-2 cells [8]; Figure 6): 5.0 µM; lowest concentration with significant (p ≤ 0.05) disintegration of cellular membranes (Caco-2 cells [9]; Figure 6): 0.5 µM; lowest concentration with significant (p ≤ 0.05) effect (Balb/c 3T3 cells [10]; Balb/c 3T3, TPC, Figure 6): 5.0 µM; lowest concentration with significant (p ≤ 0.05) effect (Balb/c 3T3 cells [11]; Balb/c 3T3, LDH, Figure 6): 5.0 µM
